# Columns and labels:
# [1] = biological target: T1, β1-AR (Homo sapiens, UniProt P08588); test: competition binding assay, membranes with recombinant β1-AR
# T1 construct: expressed in transfected cells; membranes prepared from them
# [2] = system: healthy subjects; conditions: in vivo
# [3] = system: healthy subjects
# Excerpt: Safety data from 16 Phase 1 studies, which include 15 completed Phase 1 studies and 1 study that was terminated early (this study was terminated for reasons unrelated to efficacy or safety) was collected.
# [4] = system: men and women with overactive bladder; test: Phase 3 study vibegron 75 mg vs placebo and tolterodine, 12 weeks, OAB: efficacy (Tables 21-25); assay type: in vivo, human
# Protocol: Enrollment of patients included individuals with OAB Wet (those with UUI, the involuntary loss of urine accompanied by urgency) and OAB Dry (those without UUI). A total of 1,518 patients were randomized across 215 study sites into one of three groups for a 12-week treatment period.
# The study consisted of a Screening Period (1 to 5 weeks), a single-blind Run-in Period (2 weeks), a randomized double-blind Treatment Period (12 weeks), and a Follow-up Period (4 weeks).
# Tolterodine ER 4 mg was the active control. […] Between the Baseline and Week 12 Visits, patients had study assessments at Week 4 and Week 8.
# For the analysis of the co-primary endpoints (change from baseline in average number of daily micturitions at Week 12 and change from baseline in average number of daily urge urinary incontinence episodes at Week 12, and placebo adjustment of each), a mixed model for repeated measure (MMRM) with restricted maximum likelihood estimation was used. This model corrects for dropout and accounts for the fact that measurements taken on the same patient over time tend to be correlated by using all available information on patients within the same covariate set to derive an estimate of the treatment effect for a dropout-free population. The analysis model for each efficacy endpoint includes terms for treatment, visit, OAB Type (Wet vs Dry), Sex (Female vs Male), Region (US vs Rest of World), baseline score, and interaction of visit by treatment.
# Primary inferences were drawn from treatment differences for the changes from baseline derived from the MMRM models at Week 12. As part of secondary objectives, the treatment differences for each post baseline visit were also derived using the same MMRM model.
# An unstructured covariance matrix was used to model the correlation among repeated measurements. The Kenward-Roger adjustment was used with restricted (or residual) maximum likelihood (REML) to make statistical inference. If the unstructured covariance model fails to converge with the default Newton-Raphson algorithm, the Fisher scoring algorithm or other appropriate methods can be used to provide initial values of the covariance parameters. In the rare event that none of the above methods yield convergence, a structured covariance would be used to model the correlation among repeated measurements.
# The change from baseline efficacy endpoints was analyzed using the same MMRM model described for co-primary endpoints.
# Analysis of the efficacy endpoints of proportion of patients with at least 75% reduction in the average number of daily UUI episodes at Week 12 and proportion of patients with 50% reduction in the average number of daily urgency episodes at Week 12 was analyzed using the Cochran-Mantel-Haenszel risk difference estimate. Missing Week 12 data was analyzed using multiple imputation. The estimated difference in the proportion of responders and 95% confidence interval for the difference was calculated using the Cochran-Mantel-Haenszel risk difference estimate stratified by OAB Type (Wet vs Dry) and Sex (Female vs Male), with weights proposed by Greenland and Robins.
# The same statistical methods that were used to analyze the co-primary and secondary efficacy endpoints were used for the exploratory analyses. Exploratory responder analyses were analyzed using the same Cochran-Mantel-Haenszel model as described above for secondary endpoints.
# [5] = single rising oral dose Phase 1 pharmacokinetics; assay type: in vivo, human
# Protocol: The steady state AUC geometric mean accumulation ratios were ˜2 in young male subjects and ˜2.8 in elderly subjects (male and female).
# All subjects were healthy adults. […] Systemic exposures were greater than dose proportional up to 600 mg.
# Although exposures were similar in middle-aged males when compared to young males, plasma concentrations were higher in elderly compared to middle-aged and young subjects. […] Furthermore, the steady state AUC geometric mean accumulation ratios were ˜2 in young males and ˜2.8 in the elderly.
# [6] = system: patients with OAB; test: Phase 2b study: cardiovascular safety, orthostatic AEs, blood pressure and heart rate changes (Table 17); assay type: in vivo, human; conditions: for DBP Change from Baseline [≥] 5 mm Hg, n/N (%) / DBP Change from Baseline [≥] 10 mm Hg, n/N (%) / DBP Change from Baseline ≥15 mm Hg, n/N (%) / HR Change from Baseline [≥] 10 bpm, n/N (%) / HR Change from Baseline ≥5 bpm, n/N (%) / HR Change from Baseline ≥15 bpm, n/N (%) / SBP Change from Baseline [≥] 5 mm Hg, n/N (%) / SBP Change from Baseline [≥] 10 mm Hg, n/N (%) / SBP Change from Baseline ≥15 mm Hg, n/N (%): counts based on 3 consecutive post-baseline visits; for DBP Change from Baseline, Mean (95% CI) Max / HR Change from Baseline, Mean (95% CI) Maximum / SBP Change from Baseline, Mean (95% CI) Maximum: mean maximum from week 1 to 8
# Excerpt: None led to discontinuation. The overall incidence of orthostatic symptoms was low.
# Small differences in the percent of subjects exceeding categorical heart rate and blood pressure thresholds for vibegron were similar to those in the tolterodine arm.
# T1 sequence (P08588 whole entry): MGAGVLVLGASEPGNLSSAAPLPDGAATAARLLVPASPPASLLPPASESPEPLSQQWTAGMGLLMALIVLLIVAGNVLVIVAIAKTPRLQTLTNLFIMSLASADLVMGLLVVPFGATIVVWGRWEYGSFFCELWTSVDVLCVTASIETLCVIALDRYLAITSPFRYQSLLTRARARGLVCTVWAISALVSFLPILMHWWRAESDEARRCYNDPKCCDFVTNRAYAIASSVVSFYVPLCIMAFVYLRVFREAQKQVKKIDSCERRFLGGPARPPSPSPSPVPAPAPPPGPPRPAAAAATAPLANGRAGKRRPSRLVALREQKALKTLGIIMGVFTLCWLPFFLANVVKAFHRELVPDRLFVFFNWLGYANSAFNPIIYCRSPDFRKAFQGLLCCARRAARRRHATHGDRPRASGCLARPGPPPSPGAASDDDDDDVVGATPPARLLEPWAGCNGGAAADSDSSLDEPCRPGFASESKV
smiles,measurement,setting,value
"O=C(Nc1ccc(C[C@@H]2CC[C@H]([C@H](O)c3ccccc3)N2)cc1)[C@@H]1CCc2nccc(=O)n21 [Vibegron, (6S)—N-[4-[[(2S,5R)-5-[(R)-hydroxy(phenyl)methyl]pyrrolidin-2-yl]methyl]phenyl]-4-oxo-7,8-dihydro-6H-pyrrolo[1,2-a]pyrimidine-6-carboxamide]",binding to β1-AR,[1],does not bind
same,thorough QT study finding,[2],no clinically meaningful effect on QTc or blood pressure
same,treatment-emergent SAEs or deaths,[3]; Phase 1 program,no treatment-emergent serious adverse events (SAEs) or deaths reported
same,tolerability across the Phase 1 program,"[3]; single 2 to 600 mg, multiple 25 to 400 mg up to 28 days",generally well tolerated
same,total incontinence episodes vs baseline,"[4]; 75 mg QD, 12 weeks",reduced by half
same,Micturitions: Week 12 CFB Mean,"[4]; Males with BPH, descriptive statistics",−1.50
same,"OAB-q Coping Score, Week 12 LS Mean Change from Baseline (Placebo-Adjusted)","[4]; Week 12, key secondary endpoint, once-daily vibegron 75 mg or tolterodine",3.6
same,"exposure increase, young Japanese vs non-Japanese males",[5]; single dose,< 2 fold
same,dose proportionality of mean Cmax and AUC,[5]; up to 400 mg,greater than dose-proportional
same,"SBP and DBP mean changes at Week 1 and mean maximum changes over 8 weeks, difference between placebo and vibegron",[6]; 50 mg and 100 mg,< 1 mm Hg
same,subjects with a change from baseline in DBP>15 mmHg,[6]; 100 mg,1.3%
same,"HR mean maximum changes over 8 weeks, compared to placebo",[6]; in vivo,< 2 bpm
same,"DBP Change from Baseline [≥] 5 mm Hg, n/N (%)",[6]; vibegron 3 mg,14/140 (10.0) %
same,"DBP Change from Baseline [≥] 10 mm Hg, n/N (%)",[6]; vibegron 3 mg,3/140 (2.1) %
same,"DBP Change from Baseline ≥15 mm Hg, n/N (%)",[6]; vibegron 3 mg,1/140 (0.7) %
same,"HR Change from Baseline [≥] 10 bpm, n/N (%)",[6]; vibegron 3 mg,5/140 (3.6) %
same,"HR Change from Baseline ≥5 bpm, n/N (%)",[6]; vibegron 3 mg,16/140 (11.4) %
same,"HR Change from Baseline ≥15 bpm, n/N (%)",[6]; vibegron 3 mg,1/140 (0.7) %
same,"SBP Change from Baseline [≥] 5 mm Hg, n/N (%)",[6]; vibegron 3 mg,21/140 (15.0) %
same,"SBP Change from Baseline [≥] 10 mm Hg, n/N (%)",[6]; vibegron 3 mg,10/140 (7.1) %
same,"SBP Change from Baseline ≥15 mm Hg, n/N (%)",[6]; vibegron 3 mg,4/140 (2.9) %
same,"DBP Change from Baseline, Mean (95% CI) Max",[6]; vibegron 3 mg,"5.03 (3.92, 6.15) mm Hg"
same,"HR Change from Baseline, Mean (95% CI) Maximum",[6]; vibegron 3 mg,"5.57 (4.25, 6.90) bpm"
same,"SBP Change from Baseline, Mean (95% CI) Maximum",[6]; vibegron 3 mg,"7.14 (5.18, 9.10) mm Hg"
same,"DBP Change from Baseline, Mean (95% CI) (week 1)",[6]; vibegron 3 mg,"−0.37 (−1.69, 0.95) mm Hg"
same,"HR Change from Baseline, Mean (95% CI) (week 1)",[6]; vibegron 3 mg,"0.36 (−0.90, 1.62) bpm"
same,"SBP Change from Baseline, Mean (95% CI) (week 1)",[6]; vibegron 3 mg,"−0.35 (−2.34, 1.65) mm Hg"
same,subjects with orthostatic related AEs,[6]; vibegron 15 mg group,0.3%
same,"DBP Change from Baseline [≥] 5 mm Hg, n/N (%)",[6]; vibegron 15 mg,15/132 (11.4) %
same,"DBP Change from Baseline [≥] 10 mm Hg, n/N (%)",[6]; vibegron 15 mg,3/132 (2.3) %
same,"DBP Change from Baseline ≥15 mm Hg, n/N (%)",[6]; vibegron 15 mg,1/132 (0.8) %
same,"HR Change from Baseline [≥] 10 bpm, n/N (%)",[6]; vibegron 15 mg,4/132 (3.0) %
same,"HR Change from Baseline ≥5 bpm, n/N (%)",[6]; vibegron 15 mg,17/132 (12.9) %
same,"HR Change from Baseline ≥15 bpm, n/N (%)",[6]; vibegron 15 mg,1/132 (0.8) %
same,"SBP Change from Baseline [≥] 5 mm Hg, n/N (%)",[6]; vibegron 15 mg,22/132 (16.7) %
same,"SBP Change from Baseline [≥] 10 mm Hg, n/N (%)",[6]; vibegron 15 mg,9/132 (6.8) %
same,"SBP Change from Baseline ≥15 mm Hg, n/N (%)",[6]; vibegron 15 mg,1/132 (0.8) %
same,"DBP Change from Baseline, Mean (95% CI) Max",[6]; vibegron 15 mg,"6.37 (5.20, 7.53) mm Hg"
same,"HR Change from Baseline, Mean (95% CI) Maximum",[6]; vibegron 15 mg,"6.56 (5.20, 7.92) bpm"
same,"SBP Change from Baseline, Mean (95% CI) Maximum",[6]; vibegron 15 mg,"8.93 (7.18, 10.67) mm Hg"
same,"DBP Change from Baseline, Mean (95% CI) (week 1)",[6]; vibegron 15 mg,"0.03 (−1.52, 1.59) mm Hg"
same,"HR Change from Baseline, Mean (95% CI) (week 1)",[6]; vibegron 15 mg,"0.35 (−1.15, 1.85) bpm"
same,"SBP Change from Baseline, Mean (95% CI) (week 1)",[6]; vibegron 15 mg,"−0.34 (−2.46, 1.78) mm Hg"
same,"DBP Change from Baseline [≥] 5 mm Hg, n/N (%)",[6]; vibegron 50 mg,11/144 (7.6) %
same,"DBP Change from Baseline [≥] 10 mm Hg, n/N (%)",[6]; vibegron 50 mg,5/144 (3.5) %
same,"DBP Change from Baseline ≥15 mm Hg, n/N (%)",[6]; vibegron 50 mg,1/144 (0.7) %
same,"HR Change from Baseline [≥] 10 bpm, n/N (%)",[6]; vibegron 50 mg,4/144 (2.8) %
same,"HR Change from Baseline ≥5 bpm, n/N (%)",[6]; vibegron 50 mg,12/144 (8.3) %
same,"HR Change from Baseline ≥15 bpm, n/N (%)",[6]; vibegron 50 mg,1/144 (0.7) %
same,"SBP Change from Baseline [≥] 5 mm Hg, n/N (%)",[6]; vibegron 50 mg,24/144 (16.7) %
same,"SBP Change from Baseline [≥] 10 mm Hg, n/N (%)",[6]; vibegron 50 mg,14/144 (9.7) %
same,"SBP Change from Baseline ≥15 mm Hg, n/N (%)",[6]; vibegron 50 mg,3/144 (2.1) %
same,"DBP Change from Baseline, Mean (95% CI) Max",[6]; vibegron 50 mg,"4.19 (3.10, 5.29) mm Hg"
same,"HR Change from Baseline, Mean (95% CI) Maximum",[6]; vibegron 50 mg,"5.49 (4.28, 6.69) bpm"
same,"SBP Change from Baseline, Mean (95% CI) Maximum",[6]; vibegron 50 mg,"7.01 (5.31, 8.70) mm Hg"
same,"DBP Change from Baseline, Mean (95% CI) (week 1)",[6]; vibegron 50 mg,"−0.70 (−2.07, 0.67) mm Hg"
same,"HR Change from Baseline, Mean (95% CI) (week 1)",[6]; vibegron 50 mg,"0.29 (−0.88, 1.46) bpm"
same,"SBP Change from Baseline, Mean (95% CI) (week 1)",[6]; vibegron 50 mg,"−0.79 (−2.65, 1.08) mm Hg"
same,subjects with orthostatic related AEs,[6]; vibegron 100 mg group,1.1%
same,"DBP Change from Baseline [≥] 5 mm Hg, n/N (%)",[6]; vibegron 100 mg,31/237 (13.1) %
same,"DBP Change from Baseline [≥] 10 mm Hg, n/N (%)",[6]; vibegron 100 mg,8/237 (3.4) %
same,"DBP Change from Baseline ≥15 mm Hg, n/N (%)",[6]; vibegron 100 mg,3/237 (1.3) %
same,"HR Change from Baseline [≥] 10 bpm, n/N (%)",[6]; vibegron 100 mg,7/237 (3.0) %
same,"HR Change from Baseline ≥5 bpm, n/N (%)",[6]; vibegron 100 mg,28/237 (11.8) %
same,"HR Change from Baseline ≥15 bpm, n/N (%)",[6]; vibegron 100 mg,1/237 (0.4) %
same,"SBP Change from Baseline [≥] 5 mm Hg, n/N (%)",[6]; vibegron 100 mg,28/237 (11.8) %
same,"SBP Change from Baseline [≥] 10 mm Hg, n/N (%)",[6]; vibegron 100 mg,10/237 (4.2) %
same,"SBP Change from Baseline ≥15 mm Hg, n/N (%)",[6]; vibegron 100 mg,3/237 (1.3) %
same,"DBP Change from Baseline, Mean (95% CI) Max",[6]; vibegron 100 mg,"4.80 (3.88, 5.72) mm Hg"
same,"HR Change from Baseline, Mean (95% CI) Maximum",[6]; vibegron 100 mg,"6.12 (5.10, 7.15) bpm"
same,"SBP Change from Baseline, Mean (95% CI) Maximum",[6]; vibegron 100 mg,"6.51 (5.09, 7.93) mm Hg"
same,"DBP Change from Baseline, Mean (95% CI) (week 1)",[6]; vibegron 100 mg,"−0.69 (−1.72, 0.34) mm Hg"
same,"HR Change from Baseline, Mean (95% CI) (week 1)",[6]; vibegron 100 mg,"0.35 (−0.69, 1.38) bpm"
same,"SBP Change from Baseline, Mean (95% CI) (week 1)",[6]; vibegron 100 mg,"−0.77 (−2.22, 0.68) mm Hg"

# From patent US12357636B2 (Urovant Sciences GmbH, priority 2018, dated 2025)
